Toxic doses and inconclusive results are not listed.
System: L1210 leukemia ip in BDF1 mice, survival T/C
Experiment: NCI In Vivo Anticancer Drug Screen. Data for tumor model L1210 Leukemia (intraperitoneal) in B6D2F1 (BDF1) mice
Conditions: higher = longer survival
In short: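 Tumor was transplanted into mice, which were then dosed with test compound or vehicle alone. Survival was recorded for each group, and the treated figure was expressed relative to the control figure.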

[1] = endpoint: mean survival time, dose: 100.0 mg/kg/injection, schedule: Q01DX001 (ip), vehicle: carboxymethylcellulose (CMC)
[2] = endpoint: mean survival time, dose: 200.0 mg/kg/injection, schedule: Q01DX001 (ip), vehicle: carboxymethylcellulose (CMC)
[3] = endpoint: mean survival time, dose: 100.0 mg/kg/injection, schedule: Q04DX003 (ip), vehicle: Klucel (hydroxypropylcellulose) (HPC)
[4] = endpoint: mean survival time, dose: 200.0 mg/kg/injection, schedule: Q04DX003 (ip), vehicle: Klucel (hydroxypropylcellulose) (HPC)
[5] = endpoint: mean survival time, dose: 400.0 mg/kg/injection, schedule: Q04DX003 (ip), vehicle: Klucel (hydroxypropylcellulose) (HPC)
[6] = endpoint: mean survival time, dose: 100.0 mg/kg/injection, schedule: Q04DX003 (ip), vehicle: saline with Tween-80
[7] = endpoint: mean survival time, dose: 200.0 mg/kg/injection, schedule: Q04DX003 (ip), vehicle: saline with Tween-80
[8] = endpoint: mean survival time, dose: 400.0 mg/kg/injection, schedule: Q04DX003 (ip), vehicle: saline with Tween-80

CCCCCC(=O)C(CCCC)C(=O)Nc1ccccc1 (stereo unspecified)
T/C [1]: 96 % of control | T/C [2]: 91 % of control | T/C (endpoint: mean survival time, dose: 400.0 mg/kg/injection, schedule: Q01DX001 (ip), vehicle: carboxymethylcellulose (CMC)): 91 % of control

ClC1=C(Cl)C(Cl)(C2(Cl)C(Cl)=C(Cl)C(Cl)=C2Cl)C(Cl)=C1Cl
T/C (endpoint: mean survival time, dose: 100.0 mg/kg/injection, schedule: Q01DX009 (ip), vehicle: Klucel (hydroxypropylcellulose) (HPC)): 93 % of control | T/C (endpoint: mean survival time, dose: 200.0 mg/kg/injection, schedule: Q01DX009 (ip), vehicle: Klucel (hydroxypropylcellulose) (HPC)): 102 % of control | T/C (endpoint: mean survival time, dose: 400.0 mg/kg/injection, schedule: Q01DX009 (ip), vehicle: Klucel (hydroxypropylcellulose) (HPC)): 95 % of control

CCCCNC(=S)S
T/C [3]: 95 % of control | T/C [4]: 98 % of control | T/C [5]: 104 % of control

CC(=O)CCC(=O)OC(C)(C)CN
T/C (endpoint: mean survival time, dose: 50.0 mg/kg/injection, schedule: Q01DX009 (ip), vehicle: saline with Tween-80): 102 % of control | T/C (endpoint: mean survival time, dose: 50.0 mg/kg/injection, schedule: Q04DX003 (ip), vehicle: saline with Tween-80): 99 % of control | T/C (endpoint: mean survival time, dose: 100.0 mg/kg/injection, schedule: Q01DX009 (ip), vehicle: saline with Tween-80): 103 % of control | T/C [6]: 87 % of control | T/C (endpoint: mean survival time, dose: 200.0 mg/kg/injection, schedule: Q01DX009 (ip), vehicle: saline with Tween-80): 107 % of control | T/C [7]: 91 % of control | T/C (endpoint: mean survival time, dose: 400.0 mg/kg/injection, schedule: Q01DX009 (ip), vehicle: saline with Tween-80): 103 % of control | T/C [8]: 96 % of control

O=C(Nc1ccc(Cl)cc1)NC1CCCCC1
T/C [3]: 92 % of control | T/C [4]: 92 % of control | T/C [5]: 92 % of control

O=C1NCCC/C1=N/Nc1ccccc1
T/C (endpoint: mean survival time, dose: 100.0 mg/kg/injection, schedule: Q04DX002 (ip), vehicle: Klucel (hydroxypropylcellulose) (HPC)): 92 % of control | T/C (endpoint: mean survival time, dose: 200.0 mg/kg/injection, schedule: Q04DX002 (ip), vehicle: Klucel (hydroxypropylcellulose) (HPC)): 92 % of control | T/C (endpoint: mean survival time, dose: 400.0 mg/kg/injection, schedule: Q04DX002 (ip), vehicle: Klucel (hydroxypropylcellulose) (HPC)): 113 % of control

CC(=O)C1=C(c2ccc([N+](=O)[O-])cc2)NC(=O)NC1c1ccco1 (stereo unspecified)
T/C [6]: 98 % of control | T/C [7]: 93 % of control | T/C [8]: 100 % of control

CCCCCN(C)/N=N/c1nc[nH]c1C(N)=O
T/C (endpoint: mean survival time, dose: 7.5 mg/kg/injection, schedule: Q01DX Z (ip), vehicle: carboxymethylcellulose (CMC)): 102 % of control | T/C (endpoint: mean survival time, dose: 10.0 mg/kg/injection, schedule: Q01DX Z (ip), vehicle: carboxymethylcellulose (CMC)): 110 % of control | T/C (endpoint: mean survival time, dose: 11.0 mg/kg/injection, schedule: Q01DX009 (ip), vehicle: carboxymethylcellulose (CMC)): 101 % of control | T/C (endpoint: mean survival time, dose: 15.0 mg/kg/injection, schedule: Q01DX Z (ip), vehicle: carboxymethylcellulose (CMC)): 119 % of control | T/C (endpoint: mean survival time, dose: 16.75 mg/kg/injection, schedule: Q01DX009 (ip), vehicle: carboxymethylcellulose (CMC)): 100 % of control | T/C (endpoint: mean survival time, dose: 25.0 mg/kg/injection, schedule: Q01DX009 (ip), vehicle: carboxymethylcellulose (CMC)): 118 % of control | T/C (endpoint: mean survival time, dose: 37.5 mg/kg/injection, schedule: Q01DX009 (ip), vehicle: carboxymethylcellulose (CMC)): 124 % of control | T/C (endpoint: mean survival time, dose: 75.0 mg/kg/injection, schedule: Q01DX Z (ip), vehicle: carboxymethylcellulose (CMC)): 117 % of control | T/C [1]: 119 % of control | T/C (endpoint: mean survival time, dose: 100.0 mg/kg/injection, schedule: Q01DX009 (ip), vehicle: carboxymethylcellulose (CMC)): 154 % of control | T/C (endpoint: mean survival time, dose: 120.0 mg/kg/injection, schedule: Q01DX015 (ip), vehicle: carboxymethylcellulose (CMC)): 96 % of control | T/C (endpoint: mean survival time, dose: 178.0 mg/kg/injection, schedule: Q01DX001 (ip), vehicle: carboxymethylcellulose (CMC)): 108 % of control | T/C [2]: 152 % of control | T/C (endpoint: mean survival time, dose: 267.0 mg/kg/injection, schedule: Q01DX001 (ip), vehicle: carboxymethylcellulose (CMC)): 117 % of control | T/C (endpoint: mean survival time, dose: 600.0 mg/kg/injection, schedule: Q01DX001 (ip), vehicle: carboxymethylcellulose (CMC)): 123 % of control | T/C (endpoint: median survival time, dose: 12.5 mg/kg/injection, schedule: Q01DX011 (ip), vehicle: steriod suspending solution): 112 % of control | T/C (endpoint: median survival time, dose: 25.0 mg/kg/injection, schedule: Q01DX011 (ip), vehicle: steriod suspending solution): 112 % of control | T/C (endpoint: median survival time, dose: 100.0 mg/kg/injection, schedule: Q01DX011 (ip), vehicle: steriod suspending solution): 218 % of control

CCCCC(C=NCC(CCCC)(CCN(C)C)c1cccc2ccccc12)(CCN(C)C)c1cccc2ccccc12 (stereo unspecified)
T/C (endpoint: mean survival time, dose: 6.25 mg/kg/injection, schedule: Q04DX002 (ip), vehicle: Klucel (hydroxypropylcellulose) (HPC)): 89 % of control | T/C (endpoint: mean survival time, dose: 12.5 mg/kg/injection, schedule: Q04DX002 (ip), vehicle: Klucel (hydroxypropylcellulose) (HPC)): 89 % of control | T/C (endpoint: mean survival time, dose: 25.0 mg/kg/injection, schedule: Q04DX002 (ip), vehicle: Klucel (hydroxypropylcellulose) (HPC)): 92 % of control

C1CCC2(CC1)CCCO2
T/C (endpoint: mean survival time, dose: 50.0 mg/kg/injection, schedule: Q04DX002 (ip), vehicle: saline with Tween-80): 87 % of control | T/C (endpoint: mean survival time, dose: 100.0 mg/kg/injection, schedule: Q04DX002 (ip), vehicle: saline with Tween-80): 98 % of control | T/C (endpoint: mean survival time, dose: 200.0 mg/kg/injection, schedule: Q04DX002 (ip), vehicle: saline with Tween-80): 106 % of control | T/C (endpoint: mean survival time, dose: 400.0 mg/kg/injection, schedule: Q04DX002 (ip), vehicle: saline with Tween-80): 102 % of control

Reference: PubChem BioAssay AID248 (DTP/NCI, 2004)
